Experimental data: ChEMBL document CHEMBL1133069, “Highly sensitive and rapid detection of antibody catalysis by luminescent bacteria” (Bioorg Med Chem Lett, 2000)

How the values were obtained:
[1] = Km in bacterium VhM42
[2] = Kcat in bacterium VhM42

Km [1]: 190 µM | k cat [2]: 0.001 min⁻¹
Structure (SMILES): CCCCCCCCC(O)CC(C)=O (configuration not stated)
